Values after ≈ are worked out from the molar mass of the structure shown.
Assays:
Type in all cases: functional
Aspergillus fumigatus = experiment: Antifungal activity against Aspergillus fumigatus
Candida albicans [1] = experiment: Antifungal activity against Candida albicans in Sabouraud dextrose broth
Candida albicans [2] = experiment: Antifungal activity against Candida albicans in RPMI medium

Structure (SMILES) | IC90 (Aspergillus fumigatus) | MIC (Candida albicans [1]) | MIC (Candida albicans [2])
C[C@@]1(CCCCCCCCCc2ccc(O)cc2)C[C@]2(C)OC(=O)C[C@@H]2OO1 [PLAKORTOLIDE F] | > 125 µg/mL | > 125 µg/mL | > 125 µg/mL
CC/C=C/C=C/C=C/CCCCCCCC[C@]1(C)C[C@](C)(CC(=O)O)OO1 [PLAKINIC ACID F] | 25 µg/mL (≈ 66 µM) | 25 µg/mL (≈ 66 µM) | 3.1 µg/mL (≈ 8.19 µM)
CC/C=C/C=C/C=C/CCCCCCCC[C@@]1(C)C[C@](C)(CC(=O)O)OO1 [EPIPLAKINIC ACID F] | 25 µg/mL (≈ 66 µM) | 25 µg/mL (≈ 66 µM) | 6.25 µg/mL (≈ 16.5 µM)

Source: ChEMBL document CHEMBL1155713, “Three new peroxides from the sponge Plakinastrella species” (2001)
